According to patent US7772192B2, “Compositions and methods for treatment of disease with acetylated disaccharides” (The Regents of the University of California, priority 2003, dated 2010):

Tests used:
[1] = tested on: sialyl Lewis X in HL-60, LS180, murine Lewis lung carcinoma, B16 murine melanoma cells; experiment: Inhibition of sialyl Lewis X formation in cultured cells; type: cell-based
Source text: The disaccharides can be acylated with, e.g., acetyl, butyryl or benzoyl groups to reduce their hydrophilicity and make them permeable to cell membranes. […] The various disaccharides described above and their acylated or aryl derivatives are logical extensions of the present invention. In addition, analogs of the above compounds in which critical hydroxyl groups are missing or alkylated would bind to glycosyltransfersase and inhibit their activity.

[2] = tested on: LS180 cells adhering to recombinant P-selectin; experiment: Cell adhesion to immobilized P-selectin; type: cell-based, human; conditions: LS180 cells grown 5 days with disaccharide
Experimental: Cell adhesion to immobilized selectins. 96-well plates were coated overnight at 4° C. with recombinant E-selectin (4 μg/ml) or P-selectin (2 μg/ml) (R & D Systems) and blocked with 1% BSA/PBS. LS180 cells were grown for 5 days with various amounts of acetylated disaccharide, harvested, labeled with Calcein AM (5 μM, Molecular Probes) in DMEM/1% FBS, and allowed to settle at room temperature on selectin-coated wells (5×10^4 cells/well). Plates were then stirred at 75 rpm for 30 min (Orbit shaker, Lab-Line Instruments) followed by immersion upside-down in a vessel filled with Hank's buffered saline solution (HBSS, Sigma), which allowed non-adherent cells to fall under gravity. St John et al., J. Immunol Methods, 170: 159-166, 1994. The wells were then washed by aspiration using HBSS. LS180 cells were less adherent to P-selectin, so the immersion step was not necessary prior to washing. […] Fluorescence was measured using a 96-well fluorimeter (CytoFluor II), and the average of triplicate measurements was determined±standard error. Cell viability was judged to be >90% by Trypan blue exclusion at the end of each experiment.
Adhesion to selectins is altered in disaccharide-treated tumor cells. Treatment of LS180 cells with AcGnG-NM was not toxic to the cells up to 100 μM based on growth curves and exclusion of Trypan blue. […]

[3] = tested on: LS180 cells adhering to TNF-α activated HMVEC; experiment: Adhesion of tumor cells to activated human endothelial cells; type: cell-based; conditions: LS180 cells grown 5 days with disaccharide
Experimental: Adhesion of tumor cells to activated human endothelial cells. HMVEC were added to 96-well plates (1×10^4 cells/well) in EBM-2 media (Clonetics), and allowed to grow to confluence over 2 days. The cells were activated with TNF-α (20 ng/ml; R&D Systems) for 4 hr at 37° C. Calcein labeled tumor cells, harvested after growth for 5 days in various levels of AcGnG-NM, were added to HMVEC at 2.5×10^4 cells/well in 100 μl DMEM and allowed to settle for 20 min. The wells were washed twice with cold PBS, and the extent of binding was determined by fluorimetry. In some experiments anti-E-selectin mAb (2 μg/well) was added prior to addition of tumor cells, cells were treated with sialidase (20 mU/10^6 cells), or TNF-α was omitted.
AcGnG-NM inhibits adhesion to activated endothelia and platelets. In the circulation, tumor cells can encounter E- and P-selectins expressed on endothelial cells, P-selectin on platelets, and L-selectin on leukocytes. Since the presentation of receptors on cells may differ from their arrangement when immobilized on plastic surfaces, LS180 cells were challenged to bind to E-selectin expressed on TNF-α activated human microvascular endothelial cells (HMVEC). […] HMVEC were activated with TNF-α and overlaid with Calcein-loaded LS180 cells. The extent of adhesion was normalized to the value obtained for cells not treated with disaccharide. […]

[4] = tested on: LS180 cells; experiment: Toxicity and growth of LS180 cells in culture; type: cell-based, human
Experimental: Adhesion to selectins is altered in disaccharide-treated tumor cells. Treatment of LS180 cells with AcGnG-NM was not toxic to the cells up to 100 μM based on growth curves and exclusion of Trypan blue. […] LS180 colon carcinoma cells were “panned” onto wells precoated with recombinant E- or P-selectin as indicated. Open circles, adhesion to E-selectin; filled circles, adhesion to P-selectin. The extent of adhesion was normalized to the value obtained for cells not treated with disaccharide. […] Each experimental condition was done in quadruplicate and the average values±standard errors are given. […] Adhesion to P-selectin was more sensitive to the inhibitor than adhesion to E-selectin under these conditions. The inhibitory effect of AcGnG-NM was specific since incubation of cells with acetylated Galβ1,3Galβ-O-NM (AcGG-NM) had no effect on expression of sLe^X or adhesion to either selectin conjugate See FIG. 3. The maximum extent of inhibition approached the values obtained when the cells were pre-treated with sialidase or blocking antibody to the corresponding selectin.
A final consideration is the ability of selectins to participate in “arresting” newly circulating tumor cells in organ capillary beds. Entrapment of emboli may have important consequences on the eventual uptake and growth of tumor “seeds” into large metastatic tumor foci. […]

[5] = tested on: LLC cells; experiment: Spontaneous tumor metastasis of LLC cells, compound by osmotic pump; type: in vivo, mice; conditions: ~1 mg/day/mouse, 4 weeks
Experimental: Osmotic pumps (ref 4) containing vehicle or peracetylated GlcNAcβ3Gal-NM were surgically implanted in a dorsal skin fold of Es1(e) mice and LLC cells (5×10^5) were implanted subcutaneously in the hindquarter. The dose rate of compound was ˜1 mg/day/mouse. Panel A. To detect tumor cells in the lungs, after 4 weeks each animal was injected intraperitoneally with 1 mg of BrdU (bromodeoxyuridine (BrdU), which is taken up by dividing cells—tumor cells, and therefore indicates the quantity of tumor cells in the lungs when cells from the lungs are stained with anti-BrdU antibodies). The animals were sacrificed, the heart was perfused with PBS and the lungs removed. Each lung was incubated with collagenase (10 mg/ml, 1 h, 37° C.), syringed through an 18-gauge needle and filtered through a […] nylon filter, and cells were fixed (70% ethanol, 1×10^6 cells/ml). The relative number of BrdU-labeled cells in the lungs was determined by flow cytometry (FACS) using a mouse anti-BrdU-FITC antibody. Control experiments used mouse IgG-FITC antibody. Statistics were calculated by one-way ANOVA tests comparing three groups of 4-7 animals. […] Statistics were calculated by student t-test comparing two groups of 4-7 animals.

For “GlcNAcβ1,3Galβ-O-naphthalenemethanol [AcGnG-NM]”, the “formation of sialyl Lewis X” value [1] was “inhibit the formation of sialyl Lewis X”, the “adhesion to recombinant P-selectin” value [2] was “reduced the ability of LS180 cells to adhere” and the “adhesion to TNF-α activated HMVEC” value [3] was “inhibited adhesion”. For the same substance, the “LS180 growth in culture” value ([4]; up to 50 μM) was “minimal effects”, the “toxicity to the cells” value ([4]; up to 100 μM, growth curves and exclusion of Trypan blue) was “not toxic” and the “spontaneous tumor metastasis (BrdU-labeled cells in the lungs)” value [5] was “Inhibits Spontaneous Tumor Metastasis”.
